System: locally advanced and/or metastatic solid tumors carrying mutations in the BRAF, KRAS, and/or NRAS genes
Test: Phase I dose-escalation tumor response (RECIST v1.1)
Type: in vivo, human
Parameters: key: “uPR” refers to unfolded protein response; “cPR” refers to confirmed partial response
Conditions: BRAF^V600E, NRAS^Q61L melanoma, prior Vemurafenib
Method: Phase I dose-escalation (NCT02405065) and dose-expansion studies (NCT02405065) were conducted in patients with locally advanced and/or metastatic solid tumors carrying mutations in the BRAF, KRAS, and/or NRAS genes.
Eligible patients had measurable or evaluable disease per the Response Evaluation Criteria in Solid Tumors version 1.1 (RECIST v1.1). See Eisenhauer E A, Therasse P, Bogaerts J, et al., “New response evaluation criteria in solid tumours: revised RECIST guideline (version 1.1)”, Eur J Cancer 45:228-47, 2009. All patients had progressed on one or more prior lines of therapy or had no available standard therapy at the time of study entry. Additional eligibility criteria included Eastern Cooperative Oncology Group (ECOG) performance status ≤2 and life expectancy ≥12 weeks. Patients with cardiovascular abnormalities as mean QTcF>440 msec were excluded from the dose-expansion phase.
Tumor response assessments were performed radiographically by the investigator using RECIST version 1.1 at baseline, and at the end of every two treatment cycles until discontinuation. Safety evaluation (Safety Set) included all patients who received one or more doses of belvarafenib and efficacy evaluation (Full Analysis Set) included subjects who received at least one dose of belvarafenib and had at least one post-dose tumor response assessment.

## Cc1ccc2c(Nc3cccc(Cl)c3F)nccc2c1NC(=O)c1csc2c(N)ncnc12 [Belvarafenib]
  Belvarafenib BOR: uPR

Source: US20230233567A1, “BELVARAFENIB FOR USE IN CANCER TREATMENT” (Hanmi Pharm. Co., Ltd., priority 2020, published 2023)
